Laboratory results from patent US11053204B2, “Pyrimidinyloxy benzene derivatives as herbicides” (FMC Corporation, priority 2015, dated 2021).

Experiments:
Format in all cases: in vivo
[1] = system: barnyardgrass (Echinochloa crus-galli); experiment: Test B flooded paddy test, plant response rating; conditions: Echinochloa crus-galli, 312 h; 250 g ai/ha; Flood; scale of 0 to 100 where 0 is no effect and 100 is complete control; 13 to 15 days
Procedure, shortened: (§1)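 Visual injury ratings against untreated controls, taken 13 to 15 days after compound was added to paddy water standing 3 cm above the soil.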

[2] = system: rice (Oryza sativa); experiment: Test B flooded paddy test, plant response rating; conditions: Oryza sativa, 312 h; 250 g ai/ha; Flood; scale of 0 to 100 where 0 is no effect and 100 is complete control; 13 to 15 days
Procedure, shortened: as §1

[3] = system: sedge, umbrella (small-flower umbrella sedge, Cyperus difformis); experiment: Test B flooded paddy test, plant response rating; conditions: Cyperus difformis, 312 h; 250 g ai/ha; Flood; scale of 0 to 100 where 0 is no effect and 100 is complete control; 13 to 15 days
Procedure, shortened: as §1

[4] = system: blackgrass (Alopecurus myosuroides); experiment: Test C preemergence, plant response rating; conditions: Alopecurus myosuroides, pre-emergence, Preemergence
Procedure, shortened: (§2)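 Pre-emergence: seeds sown in loam soil–sand blend or silt loam and sprayed with test chemicals in a non-phytotoxic solvent mixture with surfactant. Post-emergence: plants 2 to 18 cm (1- to 4-leaf stage) in peat-based potting medium, same formulation. Greenhouse 13 to 15 d; visual rating 0 (no effect) to 100 (complete control) versus controls.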

[5] = system: corn (Zea mays); experiment: Test C preemergence, plant response rating; conditions: Zea mays, pre-emergence, Preemergence
Procedure, shortened: as §2

[6] = system: crabgrass, large (large crabgrass, Digitaria sanguinalis); experiment: Test C preemergence, plant response rating; conditions: Digitaria sanguinalis, pre-emergence, Preemergence
Procedure, shortened: as §2

[7] = system: foxtail, giant (giant foxtail, Setaria faberii); experiment: Test C preemergence, plant response rating; conditions: Setaria faberi, pre-emergence, Preemergence
Procedure, shortened: as §2

[8] = system: lambsquarters (Chenopodium album); experiment: Test C preemergence, plant response rating; conditions: Chenopodium album, pre-emergence, Preemergence
Procedure, shortened: as §2

[9] = system: morningglory (Ipomoea coccinea); experiment: Test C preemergence, plant response rating; conditions: Ipomoea, pre-emergence, Preemergence
Procedure, shortened: as §2

[10] = system: nutsedge, yellow (yellow nutsedge, Cyperus esculentus); experiment: Test C preemergence, plant response rating; conditions: Cyperus, pre-emergence, Preemergence
Procedure, shortened: as §2

[11] = system: oilseed rape (Brassica napus); experiment: Test C preemergence, plant response rating; conditions: Brassica napus, pre-emergence, Preemergence
Procedure, shortened: as §2

[12] = system: ragweed (common ragweed, Ambrosia elatior); experiment: Test C preemergence, plant response rating; conditions: Ambrosia artemisiifolia, pre-emergence, Preemergence
Procedure, shortened: as §2

[13] = system: ryegrass, Italian (Italian ryegrass, Lolium multiflorum); experiment: Test C preemergence, plant response rating; conditions: Lolium multiflorum, pre-emergence, Preemergence
Procedure, shortened: as §2

[14] = system: soybean (Glycine max); experiment: Test C preemergence, plant response rating; conditions: Glycine max, pre-emergence, Preemergence
Procedure, shortened: as §2

[15] = system: velvetleaf (Abutilon theophrasti); experiment: Test C preemergence, plant response rating; conditions: Abutilon theophrasti, pre-emergence, Preemergence
Procedure, shortened: as §2

[16] = system: waterhemp (common waterhemp, Amaranthus rudis); experiment: Test C preemergence, plant response rating; conditions: Amaranthus tuberculatus, pre-emergence, Preemergence
Procedure, shortened: as §2

[17] = system: wheat (winter wheat, Triticum aestivum); experiment: Test C preemergence, plant response rating; conditions: Triticum aestivum, pre-emergence, Preemergence
Procedure, shortened: as §2

Structure (SMILES): C=CCCOC(=O)c1c(Br)cccc1Oc1ncc(Cl)cn1 [Compound 21, 3-buten-1-yl 2-bromo-6-[(5-chloro-2-pyrimidinyl)oxy]benzoate]
- pest or weed control at 250 g/ha [1]: 30%
- plant injury at 250 g/ha [2]: 0%
- pest or weed control at 250 g/ha [3]: 100%
- pest or weed control at 62 g/ha ([4]; 62 g ai/ha, scale of 0 to 100): 55%
- pest or weed control at 125 g/ha ([4]; 125 g ai/ha, scale of 0 to 100): 90%
- pest or weed control at 16 g/ha ([4]; 16 g ai/ha, scale 0 to 100): 5%
- pest or weed control at 31 g/ha ([4]; 31 g ai/ha, scale 0 to 100): 35%
- Corn plant response rating (crop injury, 0 = no effect, 100 = complete kill) at 62 g/ha ([5]; 62 g ai/ha, scale of 0 to 100): 5%
- Corn plant response rating (crop injury, 0 = no effect, 100 = complete kill) at 125 g/ha ([5]; 125 g ai/ha, scale of 0 to 100): 20%
- Corn plant response rating (crop injury, 0 = no effect, 100 = complete kill) at 16 g/ha ([5]; 16 g ai/ha, scale 0 to 100): 0%
- Corn plant response rating (crop injury, 0 = no effect, 100 = complete kill) at 31 g/ha ([5]; 31 g ai/ha, scale 0 to 100): 0%
- pest or weed control at 62 g/ha ([6]; 62 g ai/ha, scale of 0 to 100): 98%
- pest or weed control at 125 g/ha ([6]; 125 g ai/ha, scale of 0 to 100): 100%
- pest or weed control at 16 g/ha ([6]; 16 g ai/ha, scale 0 to 100): 20%
- pest or weed control at 31 g/ha ([6]; 31 g ai/ha, scale 0 to 100): 75%
- pest or weed control at 62 g/ha ([7]; 62 g ai/ha, scale of 0 to 100): 95%
- pest or weed control at 125 g/ha ([7]; 125 g ai/ha, scale of 0 to 100): 90%
- pest or weed control at 16 g/ha ([7]; 16 g ai/ha, scale 0 to 100): 20%
- pest or weed control at 31 g/ha ([7]; 31 g ai/ha, scale 0 to 100): 80%
- pest or weed control at 125 g/ha ([8]; 125 g ai/ha, scale of 0 to 100): 70%
- pest or weed control at 16 g/ha ([8]; 16 g ai/ha, scale 0 to 100): 0%
- pest or weed control at 31 g/ha ([8]; 31 g ai/ha, scale 0 to 100): 30%
- pest or weed control at 62 g/ha ([8]; 62 g ai/ha, scale 0 to 100): 25%
- pest or weed control at 125 g/ha ([9]; 125 g ai/ha, scale of 0 to 100): 10%
- pest or weed control at 16 g/ha ([9]; 16 g ai/ha, scale 0 to 100): 0%
- pest or weed control at 31 g/ha ([9]; 31 g ai/ha, scale 0 to 100): 0%
- pest or weed control at 62 g/ha ([9]; 62 g ai/ha, scale 0 to 100): 5%
- pest or weed control at 125 g/ha ([10]; 125 g ai/ha, scale of 0 to 100): 0%
- pest or weed control at 16 g/ha ([10]; 16 g ai/ha, scale 0 to 100): 0%
- pest or weed control at 31 g/ha ([10]; 31 g ai/ha, scale 0 to 100): 0%
- pest or weed control at 62 g/ha ([10]; 62 g ai/ha, scale 0 to 100): 0%
- plant injury at 125 g/ha ([11]; 125 g ai/ha, scale of 0 to 100): 100%
- plant injury at 16 g/ha ([11]; 16 g ai/ha, scale 0 to 100): 0%
- plant injury at 31 g/ha ([11]; 31 g ai/ha, scale 0 to 100): 0%
- plant injury at 62 g/ha ([11]; 62 g ai/ha, scale 0 to 100): 75%
- pest or weed control at 125 g/ha ([12]; 125 g ai/ha, scale of 0 to 100): 0%
- pest or weed control at 16 g/ha ([12]; 16 g ai/ha, scale 0 to 100): 0%
- pest or weed control at 31 g/ha ([12]; 31 g ai/ha, scale 0 to 100): 0%
- pest or weed control at 62 g/ha ([12]; 62 g ai/ha, scale 0 to 100): 0%
- pest or weed control at 125 g/ha ([13]; 125 g ai/ha, scale of 0 to 100): 90%
- pest or weed control at 16 g/ha ([13]; 16 g ai/ha, scale 0 to 100): 0%
- pest or weed control at 31 g/ha ([13]; 31 g ai/ha, scale 0 to 100): 10%
- pest or weed control at 62 g/ha ([13]; 62 g ai/ha, scale 0 to 100): 15%
- plant injury at 125 g/ha ([14]; 125 g ai/ha, scale of 0 to 100): 0%
- plant injury at 16 g/ha ([14]; 16 g ai/ha, scale 0 to 100): 0%
- plant injury at 31 g/ha ([14]; 31 g ai/ha, scale 0 to 100): 0%
- plant injury at 62 g/ha ([14]; 62 g ai/ha, scale 0 to 100): 0%
- pest or weed control at 125 g/ha ([15]; 125 g ai/ha, scale of 0 to 100): 100%
- pest or weed control at 16 g/ha ([15]; 16 g ai/ha, scale 0 to 100): 10%
- pest or weed control at 31 g/ha ([15]; 31 g ai/ha, scale 0 to 100): 40%
- pest or weed control at 62 g/ha ([15]; 62 g ai/ha, scale 0 to 100): 70%
- pest or weed control at 125 g/ha ([16]; 125 g ai/ha, scale of 0 to 100): 98%
- pest or weed control at 16 g/ha ([16]; 16 g ai/ha, scale 0 to 100): 70%
- pest or weed control at 31 g/ha ([16]; 31 g ai/ha, scale 0 to 100): 75%
- pest or weed control at 62 g/ha ([16]; 62 g ai/ha, scale 0 to 100): 95%
- plant injury at 125 g/ha ([17]; 125 g ai/ha, scale of 0 to 100): 0%
- plant injury at 16 g/ha ([17]; 16 g ai/ha, scale 0 to 100): 0%
- plant injury at 31 g/ha ([17]; 31 g ai/ha, scale 0 to 100): 0%
- plant injury at 62 g/ha ([17]; 62 g ai/ha, scale 0 to 100): 0%
